Active and inactive are the calls of the source. Cut-off read from the data, not from the text of the source, for most assays here: actives have a measured Kd and inactives only a lower limit.
Columns and labels:
[1] = target: Dual specificity mitogen-activated protein kinase kinase 2 (Homo sapiens, UniProt P36507)
[2] = target: Serine/threonine-protein kinase pim-1 (Homo sapiens, UniProt P11309)
[3] = target: Activated CDC42 kinase 1 (Homo sapiens, UniProt Q07912)
[4] = target: 5'-AMP-activated protein kinase catalytic subunit alpha-1 (Homo sapiens, UniProt Q13131)
Sequence of 5'-AMP-activated protein kinase catalytic subunit alpha-1 (Q13131 whole entry): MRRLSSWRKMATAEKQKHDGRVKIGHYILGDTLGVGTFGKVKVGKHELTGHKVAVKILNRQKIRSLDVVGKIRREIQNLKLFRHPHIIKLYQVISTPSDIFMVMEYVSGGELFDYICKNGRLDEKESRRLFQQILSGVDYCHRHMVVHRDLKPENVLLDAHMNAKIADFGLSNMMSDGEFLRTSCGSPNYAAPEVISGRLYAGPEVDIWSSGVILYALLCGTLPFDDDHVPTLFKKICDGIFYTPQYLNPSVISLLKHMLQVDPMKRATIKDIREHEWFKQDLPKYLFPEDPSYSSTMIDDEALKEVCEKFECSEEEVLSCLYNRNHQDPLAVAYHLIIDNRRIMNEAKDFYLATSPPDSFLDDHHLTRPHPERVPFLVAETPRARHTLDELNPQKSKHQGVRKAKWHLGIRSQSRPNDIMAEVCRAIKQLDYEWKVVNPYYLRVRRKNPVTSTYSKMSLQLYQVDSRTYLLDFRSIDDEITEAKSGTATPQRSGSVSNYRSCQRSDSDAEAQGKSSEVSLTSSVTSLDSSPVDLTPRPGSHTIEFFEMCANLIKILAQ

[5] = target: Protein-tyrosine kinase 2-beta (Homo sapiens, UniProt Q14289)
Sequence of Protein-tyrosine kinase 2-beta (Q14289 whole entry): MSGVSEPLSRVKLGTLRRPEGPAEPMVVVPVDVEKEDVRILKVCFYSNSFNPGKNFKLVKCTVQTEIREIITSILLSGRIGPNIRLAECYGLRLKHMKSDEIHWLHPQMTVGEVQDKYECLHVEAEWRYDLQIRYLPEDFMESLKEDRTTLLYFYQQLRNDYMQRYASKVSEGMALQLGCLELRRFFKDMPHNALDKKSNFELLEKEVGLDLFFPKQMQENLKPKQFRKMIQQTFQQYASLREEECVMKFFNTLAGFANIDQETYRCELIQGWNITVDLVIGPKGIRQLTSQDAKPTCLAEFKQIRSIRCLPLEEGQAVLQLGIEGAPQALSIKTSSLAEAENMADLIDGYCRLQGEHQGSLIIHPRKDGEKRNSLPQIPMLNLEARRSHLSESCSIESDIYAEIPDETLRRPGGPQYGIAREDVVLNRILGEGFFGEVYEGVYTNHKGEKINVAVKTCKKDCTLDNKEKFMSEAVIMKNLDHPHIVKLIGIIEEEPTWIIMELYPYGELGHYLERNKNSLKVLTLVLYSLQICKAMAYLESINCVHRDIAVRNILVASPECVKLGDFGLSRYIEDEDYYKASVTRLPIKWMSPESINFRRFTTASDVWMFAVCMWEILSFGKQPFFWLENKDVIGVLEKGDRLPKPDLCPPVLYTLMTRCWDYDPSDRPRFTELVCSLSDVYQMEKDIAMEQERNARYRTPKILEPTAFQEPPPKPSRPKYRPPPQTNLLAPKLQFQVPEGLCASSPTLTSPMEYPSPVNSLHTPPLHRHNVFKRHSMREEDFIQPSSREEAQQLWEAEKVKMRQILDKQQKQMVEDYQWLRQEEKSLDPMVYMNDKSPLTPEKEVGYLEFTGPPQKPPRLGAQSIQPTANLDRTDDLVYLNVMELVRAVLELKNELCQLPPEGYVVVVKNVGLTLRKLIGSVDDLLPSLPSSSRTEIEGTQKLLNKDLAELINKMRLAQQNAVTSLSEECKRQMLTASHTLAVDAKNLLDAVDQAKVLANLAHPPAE

[6] = target: T1, Breakpoint cluster region protein (Homo sapiens, UniProt P11274)
T1 sequence (P11274 whole entry): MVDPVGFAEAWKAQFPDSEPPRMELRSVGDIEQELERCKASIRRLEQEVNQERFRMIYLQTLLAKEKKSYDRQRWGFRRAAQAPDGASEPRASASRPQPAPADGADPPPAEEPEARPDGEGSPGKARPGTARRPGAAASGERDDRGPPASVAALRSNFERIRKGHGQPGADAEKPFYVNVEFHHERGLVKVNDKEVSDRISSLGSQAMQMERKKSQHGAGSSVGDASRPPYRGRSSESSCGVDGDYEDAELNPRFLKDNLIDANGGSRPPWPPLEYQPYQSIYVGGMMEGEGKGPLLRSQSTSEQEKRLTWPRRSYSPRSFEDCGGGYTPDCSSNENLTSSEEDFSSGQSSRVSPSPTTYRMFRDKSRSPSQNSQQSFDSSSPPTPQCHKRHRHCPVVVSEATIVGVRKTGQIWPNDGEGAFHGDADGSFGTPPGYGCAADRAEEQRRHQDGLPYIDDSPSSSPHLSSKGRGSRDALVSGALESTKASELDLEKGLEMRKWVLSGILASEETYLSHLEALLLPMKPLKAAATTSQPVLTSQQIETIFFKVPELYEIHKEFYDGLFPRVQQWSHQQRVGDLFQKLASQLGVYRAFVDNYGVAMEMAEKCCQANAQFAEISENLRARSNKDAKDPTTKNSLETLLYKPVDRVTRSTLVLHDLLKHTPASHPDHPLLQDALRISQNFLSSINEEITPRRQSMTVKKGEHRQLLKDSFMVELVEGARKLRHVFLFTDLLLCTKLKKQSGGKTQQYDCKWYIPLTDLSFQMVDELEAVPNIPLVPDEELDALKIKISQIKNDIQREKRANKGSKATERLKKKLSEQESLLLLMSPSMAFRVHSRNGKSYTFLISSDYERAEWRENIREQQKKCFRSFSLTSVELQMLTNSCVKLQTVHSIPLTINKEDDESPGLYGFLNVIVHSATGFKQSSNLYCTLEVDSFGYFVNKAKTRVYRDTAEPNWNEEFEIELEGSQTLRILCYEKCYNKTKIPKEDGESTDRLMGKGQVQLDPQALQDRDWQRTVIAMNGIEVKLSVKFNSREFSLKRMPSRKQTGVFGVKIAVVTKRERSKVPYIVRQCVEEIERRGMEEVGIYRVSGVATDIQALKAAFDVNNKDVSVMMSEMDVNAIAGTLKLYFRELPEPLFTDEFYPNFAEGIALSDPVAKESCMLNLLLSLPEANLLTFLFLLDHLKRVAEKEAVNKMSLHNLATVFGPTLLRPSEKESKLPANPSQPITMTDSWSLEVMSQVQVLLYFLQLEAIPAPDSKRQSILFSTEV

[7] = target: T2, Mitogen-activated protein kinase 15 (Homo sapiens, UniProt Q8TD08)
T2 sequence (Q8TD08 whole entry): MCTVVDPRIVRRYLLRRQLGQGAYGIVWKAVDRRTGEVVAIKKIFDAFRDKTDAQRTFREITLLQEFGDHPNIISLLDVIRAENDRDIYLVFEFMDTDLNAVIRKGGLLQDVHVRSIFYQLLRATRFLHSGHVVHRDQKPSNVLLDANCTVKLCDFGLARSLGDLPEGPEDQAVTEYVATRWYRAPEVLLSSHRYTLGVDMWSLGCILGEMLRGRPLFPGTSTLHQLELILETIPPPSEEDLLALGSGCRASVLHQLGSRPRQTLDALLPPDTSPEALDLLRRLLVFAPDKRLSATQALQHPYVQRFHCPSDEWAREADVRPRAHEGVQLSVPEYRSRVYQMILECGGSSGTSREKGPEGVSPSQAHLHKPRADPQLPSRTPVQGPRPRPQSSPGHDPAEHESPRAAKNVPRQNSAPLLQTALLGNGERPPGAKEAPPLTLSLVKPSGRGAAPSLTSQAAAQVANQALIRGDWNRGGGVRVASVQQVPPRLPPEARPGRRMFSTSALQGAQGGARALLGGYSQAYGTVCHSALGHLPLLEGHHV
Note: in the data inactive means no Kd found up to 30 µM.

Sequence of Serine/threonine-protein kinase pim-1 (P11309 whole entry): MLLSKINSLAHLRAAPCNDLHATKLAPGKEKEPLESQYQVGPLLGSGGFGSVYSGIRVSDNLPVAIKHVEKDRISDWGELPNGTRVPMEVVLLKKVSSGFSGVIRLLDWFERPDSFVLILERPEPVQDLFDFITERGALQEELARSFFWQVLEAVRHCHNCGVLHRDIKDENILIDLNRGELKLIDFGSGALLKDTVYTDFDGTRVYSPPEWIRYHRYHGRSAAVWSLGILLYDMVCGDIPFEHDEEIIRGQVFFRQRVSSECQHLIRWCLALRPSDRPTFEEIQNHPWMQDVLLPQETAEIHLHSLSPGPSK
Sequence of Activated CDC42 kinase 1 (Q07912 whole entry): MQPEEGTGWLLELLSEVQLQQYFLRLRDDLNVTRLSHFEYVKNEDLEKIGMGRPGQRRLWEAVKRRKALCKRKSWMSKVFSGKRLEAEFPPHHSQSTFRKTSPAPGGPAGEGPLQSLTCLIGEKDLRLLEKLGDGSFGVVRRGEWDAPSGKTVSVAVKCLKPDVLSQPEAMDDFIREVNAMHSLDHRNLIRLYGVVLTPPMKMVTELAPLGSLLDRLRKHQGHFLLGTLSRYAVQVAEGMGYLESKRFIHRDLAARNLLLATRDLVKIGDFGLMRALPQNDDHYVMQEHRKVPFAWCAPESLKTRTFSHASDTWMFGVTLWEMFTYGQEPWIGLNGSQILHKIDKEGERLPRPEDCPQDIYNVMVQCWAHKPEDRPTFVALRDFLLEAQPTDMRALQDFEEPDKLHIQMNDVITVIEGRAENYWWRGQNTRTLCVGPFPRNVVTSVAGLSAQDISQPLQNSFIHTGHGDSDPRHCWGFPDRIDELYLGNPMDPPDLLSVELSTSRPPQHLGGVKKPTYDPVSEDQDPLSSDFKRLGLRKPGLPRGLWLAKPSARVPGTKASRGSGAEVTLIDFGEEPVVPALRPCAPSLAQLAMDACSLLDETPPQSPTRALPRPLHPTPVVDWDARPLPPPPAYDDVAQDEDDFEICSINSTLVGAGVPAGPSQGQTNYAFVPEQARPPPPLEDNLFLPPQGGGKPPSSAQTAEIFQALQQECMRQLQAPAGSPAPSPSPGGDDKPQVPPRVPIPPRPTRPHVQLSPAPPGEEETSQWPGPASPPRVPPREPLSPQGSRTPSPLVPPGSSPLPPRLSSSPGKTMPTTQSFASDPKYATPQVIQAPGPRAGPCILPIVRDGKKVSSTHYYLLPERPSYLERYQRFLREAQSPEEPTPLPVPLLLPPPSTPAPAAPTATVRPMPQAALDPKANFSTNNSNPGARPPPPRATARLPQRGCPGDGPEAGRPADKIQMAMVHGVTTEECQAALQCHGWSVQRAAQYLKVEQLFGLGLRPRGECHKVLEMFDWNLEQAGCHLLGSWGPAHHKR
Sequence of Dual specificity mitogen-activated protein kinase kinase 2 (P36507 whole entry): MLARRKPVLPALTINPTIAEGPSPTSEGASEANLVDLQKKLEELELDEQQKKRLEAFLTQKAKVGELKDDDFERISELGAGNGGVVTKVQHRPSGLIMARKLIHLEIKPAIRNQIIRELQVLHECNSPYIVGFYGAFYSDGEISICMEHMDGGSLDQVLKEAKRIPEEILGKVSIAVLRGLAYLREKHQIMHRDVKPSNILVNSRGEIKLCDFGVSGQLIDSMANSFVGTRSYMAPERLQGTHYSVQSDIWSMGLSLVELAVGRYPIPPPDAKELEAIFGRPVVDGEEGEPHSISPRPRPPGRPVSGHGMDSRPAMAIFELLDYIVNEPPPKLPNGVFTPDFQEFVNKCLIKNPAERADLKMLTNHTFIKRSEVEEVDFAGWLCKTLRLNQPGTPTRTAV

Row | SMILES | Kd [1] | Kd [2] | Kd [3] | Kd [4] | Kd [5] | Kd [6] | Kd [7]
1 | Cc1cc2c(F)c(Oc3ncnn4cc(OC[C@@H](C)OC(=O)[C@H](C)N)c(C)c34)ccc2[nH]1 [BRIVANIB ALANINATE] | > 30 µM (inactive) | > 30 µM (inactive) | > 30 µM (inactive) | > 30 µM (inactive) | > 30 µM (inactive) | > 30 µM (inactive) | > 30 µM (inactive)
2 | CNC(=O)c1ccc(-c2cnc3ncc(Cc4ccc5ncccc5c4)n3n2)cc1F [CAPMATINIB] | > 30 µM (inactive) | > 30 µM (inactive) | > 30 µM (inactive) | > 30 µM (inactive) | > 30 µM (inactive) | > 30 µM (inactive) | > 30 µM (inactive)
3 | O=C(c1ccc(F)c(F)c1Nc1ccc(I)cc1F)N1CC(O)([C@@H]2CCCCN2)C1 [COBIMETINIB] | 0.022 µM (active) | > 30 µM (inactive) | > 30 µM (inactive) | > 30 µM (inactive) | > 30 µM (inactive) | > 30 µM (inactive) | > 30 µM (inactive)
4 | COC(=O)N[C@@H](C)CNc1nccc(-c2cn(C(C)C)nc2-c2cc(Cl)cc(NS(C)(=O)=O)c2F)n1 [ENCORAFENIB] | > 30 µM (inactive) | > 30 µM (inactive) | > 30 µM (inactive) | > 30 µM (inactive) | > 30 µM (inactive) | > 30 µM (inactive) | > 30 µM (inactive)
5 | CO[C@H]1C[C@@H]2CC[C@@H](C)[C@@](O)(O2)C(=O)C(=O)N2CCCC[C@H]2C(=O)O[C@H]([C@H](C)C[C@@H]2CC[C@@H](OCCO)[C@H](OC)C2)CC(=O)[C@H](C)/C=C(\C)[C@@H](O)[C@@H](OC)C(=O)[C@H](C)C[C@H](C)/C=C/C=C/C=C/1C [EVEROLIMUS] | > 30 µM (inactive) | > 30 µM (inactive) | > 30 µM (inactive) | > 30 µM (inactive) | > 30 µM (inactive) | > 30 µM (inactive) | > 30 µM (inactive)
6 | COCCNCc1ccc(-c2cc3nccc(Oc4ccc(NC(=S)NC(=O)Cc5ccc(F)cc5)cc4F)c3s2)nc1 [GLESATINIB] | > 30 µM (inactive) | > 30 µM (inactive) | > 30 µM (inactive) | > 30 µM (inactive) | > 30 µM (inactive) | 0.858 µM (active) | > 30 µM (inactive)
7 | O=C1NC(=O)/C(=C/c2ccc3nccc(-c4ccncc4)c3c2)S1 [GSK-1059615] | 5.25 µM (active) | 0.205 µM (active) | > 30 µM (inactive) | > 30 µM (inactive) | > 30 µM (inactive) | > 30 µM (inactive) | > 30 µM (inactive)
8 | CC[C@H](Nc1ncnc2[nH]cnc12)c1nc2cccc(F)c2c(=O)n1-c1ccccc1 [IDELALISIB] | > 30 µM (inactive) | > 30 µM (inactive) | > 30 µM (inactive) | > 30 µM (inactive) | > 30 µM (inactive) | > 30 µM (inactive) | > 30 µM (inactive)
9 | Cn1cc(-c2ccc3nnc(C(F)(F)c4ccc5ncccc5c4)n3n2)cn1 [JNJ-38877605] | > 30 µM (inactive) | > 30 µM (inactive) | > 30 µM (inactive) | > 30 µM (inactive) | > 30 µM (inactive) | > 30 µM (inactive) | > 30 µM (inactive)
10 | COc1cc2nccc(Oc3ccc(NC(=O)NC4CC4)c(Cl)c3)c2cc1C(N)=O [LENVATINIB] | > 30 µM (inactive) | > 30 µM (inactive) | > 30 µM (inactive) | > 30 µM (inactive) | > 30 µM (inactive) | 4.11 µM (active) | > 30 µM (inactive)
11 | Cc1c(F)cc(C(=O)NC2CC2)cc1-c1ccc(C(=O)NCC(C)(C)C)cn1 [LOSMAPIMOD] | > 30 µM (inactive) | > 30 µM (inactive) | > 30 µM (inactive) | > 30 µM (inactive) | > 30 µM (inactive) | > 30 µM (inactive) | > 30 µM (inactive)
12 | Cn1cc(-c2ccc(F)c(C(F)(F)F)c2)nc1C1CCN(c2ncnc3[nH]ncc23)CC1 [LY-2584702] | > 30 µM (inactive) | > 30 µM (inactive) | > 30 µM (inactive) | > 30 µM (inactive) | > 30 µM (inactive) | > 30 µM (inactive) | > 30 µM (inactive)

Source: ChEMBL document CHEMBL3991601, “The target landscape of clinical kinase drugs” (Science, 2017)
